The record followed here is ChEMBL document CHEMBL1201862, “PubChem BioAssay data set” (2004).

SMILES strings stand for the structures. Active and inactive are the calls of the source.

For one experiment, the target named is T1, Caspase-3 (Homo sapiens, UniProt P42574).
T1 sequence (P42574 whole entry): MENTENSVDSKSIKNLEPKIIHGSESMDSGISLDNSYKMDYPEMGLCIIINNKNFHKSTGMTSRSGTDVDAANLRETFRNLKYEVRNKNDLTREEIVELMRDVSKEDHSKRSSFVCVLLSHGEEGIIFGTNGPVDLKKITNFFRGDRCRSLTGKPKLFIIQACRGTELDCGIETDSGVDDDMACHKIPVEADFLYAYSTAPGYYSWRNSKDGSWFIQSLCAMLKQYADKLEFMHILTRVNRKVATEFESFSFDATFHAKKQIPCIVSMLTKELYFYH
The experiment is described as follows: SAR Analysis of small molecule inhibitors of Sentrin-specific proteases (SENPs) using a Caspase-3 Selectivity assay. [Related pubchem assays (depositor defined):AID2540, AID2599, AID434973, AID489001]. Format: functional.

The target in experiment [1] is Tyrosyl-DNA phosphodiesterase 2 (Homo sapiens, UniProt O95551). The experiment is described as follows: potency against TDP2 phosphodiesterase activity – biochemical, epi absorbance, IC50, dose response (AID 743297).
The target of experiment [2] is Heat shock protein HSP 90-alpha (Homo sapiens, UniProt P07900). Format: functional, organism-based.
Experiment [3] concerns the target T2, Corticotropin-releasing factor receptor 2/Corticotropin-releasing factor-binding protein (Homo sapiens, UniProt P24387+Q13324).
T2 sequence (Q13324 whole entry): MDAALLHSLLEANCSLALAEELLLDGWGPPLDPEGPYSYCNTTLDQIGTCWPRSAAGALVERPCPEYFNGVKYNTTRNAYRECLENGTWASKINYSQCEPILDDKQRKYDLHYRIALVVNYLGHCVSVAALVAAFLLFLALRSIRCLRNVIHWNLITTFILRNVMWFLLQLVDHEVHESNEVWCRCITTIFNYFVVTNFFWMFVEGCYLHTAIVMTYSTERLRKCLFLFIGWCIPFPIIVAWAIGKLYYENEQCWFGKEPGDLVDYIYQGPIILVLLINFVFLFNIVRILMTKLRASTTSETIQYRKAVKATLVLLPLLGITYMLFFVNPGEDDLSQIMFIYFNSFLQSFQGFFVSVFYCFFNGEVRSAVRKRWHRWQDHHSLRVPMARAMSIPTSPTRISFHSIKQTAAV
T2 sequence (P24387 whole entry): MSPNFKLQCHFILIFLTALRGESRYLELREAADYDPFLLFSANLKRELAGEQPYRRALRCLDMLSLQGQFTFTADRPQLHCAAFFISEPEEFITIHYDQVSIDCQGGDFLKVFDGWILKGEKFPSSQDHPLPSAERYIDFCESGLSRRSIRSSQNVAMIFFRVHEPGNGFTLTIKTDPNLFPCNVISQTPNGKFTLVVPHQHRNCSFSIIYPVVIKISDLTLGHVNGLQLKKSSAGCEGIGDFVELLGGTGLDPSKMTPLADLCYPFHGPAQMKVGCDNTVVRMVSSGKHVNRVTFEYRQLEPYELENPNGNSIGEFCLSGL
The experiment is described as follows: Dose Response confirmation of uHTS hits for small molecule antagonists of the CRF-binding protein and CRF-R2 receptor complex. Type of experiment: functional. The following applies: read-out: IC50_Mean.

In experiment [4] the target is Mitochondrial peptide methionine sulfoxide reductase (Bos taurus, UniProt P54149). The experiment is described as follows: Absorbance-based biochemical high throughput dose response assay for activators of Methionine sulfoxide reductase A (MsrA). Format: functional.
The target of experiment [5] is Interleukin-1 receptor-associated kinase 4 (Homo sapiens, UniProt Q9NWZ3). Type of experiment: functional.
For experiment [6], the target named is Receptor-type tyrosine-protein kinase FLT3 (Homo sapiens, UniProt P36888). Type of experiment: functional.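 Further: FLT3 was tested as one member of a kinome-wide kinase panel.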
Experiment [7] deals with Protein kinase C delta type (Homo sapiens, UniProt Q05655). Type of experiment: functional.
Experiment [8] deals with RAC-alpha serine/threonine-protein kinase (Homo sapiens, UniProt P31749). Format: functional.
The target in experiment [9] is Serine/threonine-protein kinase Chk2 (Homo sapiens, UniProt O96017). Format: functional.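 Further: CHEK2 entry within a kinome-wide screening panel.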
The target of experiment [10] is Ribosomal protein S6 kinase beta-1 (Homo sapiens, UniProt P23443). Type of experiment: functional.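 Further: measured as one member of a kinome-wide profiling panel.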
Experiment [11] deals with Tyrosine-protein kinase FRK (Homo sapiens, UniProt P42685). Type of experiment: functional.
Experiment [12] has as its target Serine/threonine-protein kinase PLK4 (Homo sapiens, UniProt O00444). Type of experiment: functional.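 Further: PLK4 measured as one member of a kinome-wide kinase profiling panel.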
Experiment [13] addresses Homeodomain-interacting protein kinase 2 (Homo sapiens, UniProt Q9H2X6). Type of experiment: functional.
Experiment [14] concerns the target Serine/threonine-protein kinase pim-2 (Homo sapiens, UniProt Q9P1W9). Type of experiment: functional.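 Further: value comes from a broad kinase panel profiling study in which PIM2 was one of the panel members.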
In experiment [15] the target is MAP kinase-activated protein kinase 2 (Homo sapiens, UniProt P49137). Format: functional.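 Further: measured as one member of a kinome-wide kinase panel.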
For experiment [16], the target named is Serine/threonine-protein kinase Chk1 (Homo sapiens, UniProt O14757). Type of experiment: functional.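 Further: measured as one member of a kinome-wide kinase profiling panel.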
In experiment [17] the target is Mitogen-activated protein kinase kinase kinase 20 (Homo sapiens, UniProt Q9NYL2). Format: functional.
Experiment [18] has as its target Serine/threonine-protein kinase pim-1 (Homo sapiens, UniProt P11309). Type of experiment: functional.

Chain of Homeodomain-interacting protein kinase 2 (Q9H2X6 whole entry): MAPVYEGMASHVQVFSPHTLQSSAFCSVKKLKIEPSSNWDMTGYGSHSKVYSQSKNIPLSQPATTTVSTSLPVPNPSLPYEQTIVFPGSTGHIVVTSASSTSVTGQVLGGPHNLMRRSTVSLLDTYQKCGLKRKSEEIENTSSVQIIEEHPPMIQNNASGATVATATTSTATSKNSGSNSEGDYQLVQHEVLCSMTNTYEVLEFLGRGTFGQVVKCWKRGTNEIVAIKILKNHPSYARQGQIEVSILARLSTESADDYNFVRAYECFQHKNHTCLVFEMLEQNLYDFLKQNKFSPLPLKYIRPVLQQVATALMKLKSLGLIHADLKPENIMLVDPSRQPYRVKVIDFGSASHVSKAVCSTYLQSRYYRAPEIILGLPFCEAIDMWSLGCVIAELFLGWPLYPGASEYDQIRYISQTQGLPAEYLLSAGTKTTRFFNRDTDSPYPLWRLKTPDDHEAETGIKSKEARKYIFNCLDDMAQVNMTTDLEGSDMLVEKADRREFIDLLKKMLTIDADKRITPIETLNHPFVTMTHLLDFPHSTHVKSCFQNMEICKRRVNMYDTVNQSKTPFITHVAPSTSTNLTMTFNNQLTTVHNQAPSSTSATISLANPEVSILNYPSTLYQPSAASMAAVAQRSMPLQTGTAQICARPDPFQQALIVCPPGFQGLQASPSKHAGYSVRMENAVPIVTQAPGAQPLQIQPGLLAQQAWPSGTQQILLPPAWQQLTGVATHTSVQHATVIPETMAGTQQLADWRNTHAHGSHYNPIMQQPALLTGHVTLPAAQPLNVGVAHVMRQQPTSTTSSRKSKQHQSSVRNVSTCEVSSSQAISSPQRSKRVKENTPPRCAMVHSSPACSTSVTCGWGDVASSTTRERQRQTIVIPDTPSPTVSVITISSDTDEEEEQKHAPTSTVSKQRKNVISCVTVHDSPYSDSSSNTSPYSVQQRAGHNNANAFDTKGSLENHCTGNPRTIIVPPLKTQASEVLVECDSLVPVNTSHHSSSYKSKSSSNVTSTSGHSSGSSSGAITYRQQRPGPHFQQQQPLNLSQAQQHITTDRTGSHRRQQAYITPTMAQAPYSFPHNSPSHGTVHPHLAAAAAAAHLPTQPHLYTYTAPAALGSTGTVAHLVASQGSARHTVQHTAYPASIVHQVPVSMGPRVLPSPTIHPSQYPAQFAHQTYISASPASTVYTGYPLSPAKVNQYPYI
Chain of Interleukin-1 receptor-associated kinase 4 (Q9NWZ3 whole entry): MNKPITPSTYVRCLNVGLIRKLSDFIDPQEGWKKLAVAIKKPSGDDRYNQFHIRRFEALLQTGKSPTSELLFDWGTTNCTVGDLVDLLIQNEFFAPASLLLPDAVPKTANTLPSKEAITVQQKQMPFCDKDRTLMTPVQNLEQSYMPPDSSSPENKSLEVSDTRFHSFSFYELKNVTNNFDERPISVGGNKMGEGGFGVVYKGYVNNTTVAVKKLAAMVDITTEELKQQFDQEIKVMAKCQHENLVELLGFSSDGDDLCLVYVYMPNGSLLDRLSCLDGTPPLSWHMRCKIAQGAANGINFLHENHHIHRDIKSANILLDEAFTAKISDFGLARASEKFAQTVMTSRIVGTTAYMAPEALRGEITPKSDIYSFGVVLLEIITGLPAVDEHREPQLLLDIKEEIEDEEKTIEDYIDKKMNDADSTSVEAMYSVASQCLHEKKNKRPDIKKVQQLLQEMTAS
Chain of Receptor-type tyrosine-protein kinase FLT3 (P36888 whole entry): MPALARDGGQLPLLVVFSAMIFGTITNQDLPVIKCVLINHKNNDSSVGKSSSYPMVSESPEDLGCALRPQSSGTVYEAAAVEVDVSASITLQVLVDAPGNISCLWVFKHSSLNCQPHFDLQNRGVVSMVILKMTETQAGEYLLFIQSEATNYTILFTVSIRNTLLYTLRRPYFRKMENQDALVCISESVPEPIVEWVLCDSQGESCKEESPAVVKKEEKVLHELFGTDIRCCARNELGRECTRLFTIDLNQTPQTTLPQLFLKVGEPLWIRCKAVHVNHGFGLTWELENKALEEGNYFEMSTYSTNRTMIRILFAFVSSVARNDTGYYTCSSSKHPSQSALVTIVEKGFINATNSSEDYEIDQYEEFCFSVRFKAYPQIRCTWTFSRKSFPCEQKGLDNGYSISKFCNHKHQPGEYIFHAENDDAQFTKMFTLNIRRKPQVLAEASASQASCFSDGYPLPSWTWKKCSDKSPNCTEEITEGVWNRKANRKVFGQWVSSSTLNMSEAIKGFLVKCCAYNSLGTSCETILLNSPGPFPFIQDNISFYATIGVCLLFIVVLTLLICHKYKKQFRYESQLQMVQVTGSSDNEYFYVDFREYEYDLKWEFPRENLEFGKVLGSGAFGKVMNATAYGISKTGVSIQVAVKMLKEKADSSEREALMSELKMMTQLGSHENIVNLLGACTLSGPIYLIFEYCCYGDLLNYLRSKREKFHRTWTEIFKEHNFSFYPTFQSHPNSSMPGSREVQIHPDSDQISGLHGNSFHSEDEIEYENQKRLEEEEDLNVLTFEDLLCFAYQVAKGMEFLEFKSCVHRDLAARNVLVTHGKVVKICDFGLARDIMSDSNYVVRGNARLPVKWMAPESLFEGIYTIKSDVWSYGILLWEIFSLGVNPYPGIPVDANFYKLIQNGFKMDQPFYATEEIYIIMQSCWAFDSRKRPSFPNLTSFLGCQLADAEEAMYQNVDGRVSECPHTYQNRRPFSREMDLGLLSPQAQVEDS
Chain of Tyrosyl-DNA phosphodiesterase 2 (O95551 whole entry): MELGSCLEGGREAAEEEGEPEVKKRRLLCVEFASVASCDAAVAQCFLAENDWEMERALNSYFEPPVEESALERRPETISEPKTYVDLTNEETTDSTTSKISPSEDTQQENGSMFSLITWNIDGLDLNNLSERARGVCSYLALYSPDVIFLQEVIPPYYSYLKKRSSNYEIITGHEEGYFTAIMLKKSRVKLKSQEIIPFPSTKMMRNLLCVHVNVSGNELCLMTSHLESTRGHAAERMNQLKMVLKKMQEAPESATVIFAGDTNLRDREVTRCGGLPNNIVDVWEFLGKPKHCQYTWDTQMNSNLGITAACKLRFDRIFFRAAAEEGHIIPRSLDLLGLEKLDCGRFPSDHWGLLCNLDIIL
Chain of Serine/threonine-protein kinase pim-1 (P11309 whole entry): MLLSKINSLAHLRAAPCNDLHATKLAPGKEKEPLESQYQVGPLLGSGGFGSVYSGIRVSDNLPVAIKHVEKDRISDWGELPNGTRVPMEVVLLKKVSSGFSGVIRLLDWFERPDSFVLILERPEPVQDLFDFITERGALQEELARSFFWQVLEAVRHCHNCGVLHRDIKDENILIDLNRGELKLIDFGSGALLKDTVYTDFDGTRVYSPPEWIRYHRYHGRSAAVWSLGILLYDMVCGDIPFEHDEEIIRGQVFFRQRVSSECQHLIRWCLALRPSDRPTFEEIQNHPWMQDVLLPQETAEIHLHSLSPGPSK
Chain of Protein kinase C delta type (Q05655 whole entry): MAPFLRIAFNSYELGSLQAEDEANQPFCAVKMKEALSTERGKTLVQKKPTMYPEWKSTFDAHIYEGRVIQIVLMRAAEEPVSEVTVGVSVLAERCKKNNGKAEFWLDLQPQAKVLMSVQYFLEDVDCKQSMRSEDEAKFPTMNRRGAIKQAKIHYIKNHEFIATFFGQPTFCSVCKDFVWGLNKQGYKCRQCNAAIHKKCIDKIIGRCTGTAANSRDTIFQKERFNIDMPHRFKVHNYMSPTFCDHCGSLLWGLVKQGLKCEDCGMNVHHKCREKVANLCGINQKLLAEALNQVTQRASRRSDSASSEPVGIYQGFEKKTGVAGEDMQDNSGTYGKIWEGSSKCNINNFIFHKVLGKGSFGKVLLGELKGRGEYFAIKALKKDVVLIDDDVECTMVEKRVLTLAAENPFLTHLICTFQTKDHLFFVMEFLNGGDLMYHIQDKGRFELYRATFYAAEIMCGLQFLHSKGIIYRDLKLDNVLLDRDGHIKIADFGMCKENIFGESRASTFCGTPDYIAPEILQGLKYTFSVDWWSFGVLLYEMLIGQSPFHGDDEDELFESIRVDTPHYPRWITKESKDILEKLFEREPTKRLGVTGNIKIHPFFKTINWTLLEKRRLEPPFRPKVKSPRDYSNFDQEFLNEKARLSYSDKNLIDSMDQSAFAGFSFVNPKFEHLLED
Chain of Mitochondrial peptide methionine sulfoxide reductase (P54149 whole entry): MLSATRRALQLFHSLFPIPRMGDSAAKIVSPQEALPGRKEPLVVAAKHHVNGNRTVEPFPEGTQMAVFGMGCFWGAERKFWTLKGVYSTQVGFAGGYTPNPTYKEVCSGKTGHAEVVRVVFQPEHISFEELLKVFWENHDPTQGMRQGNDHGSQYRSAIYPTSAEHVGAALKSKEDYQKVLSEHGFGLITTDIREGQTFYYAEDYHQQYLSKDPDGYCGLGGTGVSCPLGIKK
Chain of Serine/threonine-protein kinase Chk1 (O14757 whole entry): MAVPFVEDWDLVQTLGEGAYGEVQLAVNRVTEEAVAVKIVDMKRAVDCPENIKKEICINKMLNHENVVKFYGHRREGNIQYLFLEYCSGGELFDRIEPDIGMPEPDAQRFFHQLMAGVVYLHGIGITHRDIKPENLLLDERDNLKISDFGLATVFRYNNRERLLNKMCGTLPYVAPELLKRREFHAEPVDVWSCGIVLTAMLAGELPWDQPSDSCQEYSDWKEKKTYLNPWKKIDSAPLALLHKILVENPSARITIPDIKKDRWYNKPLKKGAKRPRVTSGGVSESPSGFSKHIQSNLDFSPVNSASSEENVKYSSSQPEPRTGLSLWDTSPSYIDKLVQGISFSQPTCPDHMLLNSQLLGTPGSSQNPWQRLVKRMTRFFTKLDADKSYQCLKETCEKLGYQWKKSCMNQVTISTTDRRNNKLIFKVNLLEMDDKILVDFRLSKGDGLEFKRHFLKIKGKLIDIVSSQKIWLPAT
Chain of Serine/threonine-protein kinase pim-2 (Q9P1W9 whole entry): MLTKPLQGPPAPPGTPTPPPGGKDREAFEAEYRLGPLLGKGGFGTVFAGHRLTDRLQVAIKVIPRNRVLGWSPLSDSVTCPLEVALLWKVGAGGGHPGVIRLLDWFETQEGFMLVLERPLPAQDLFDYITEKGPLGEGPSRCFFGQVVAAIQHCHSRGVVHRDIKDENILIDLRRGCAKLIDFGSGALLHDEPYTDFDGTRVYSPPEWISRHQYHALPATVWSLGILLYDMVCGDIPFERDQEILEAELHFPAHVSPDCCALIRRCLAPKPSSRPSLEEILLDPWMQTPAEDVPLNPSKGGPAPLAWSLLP

Take `COc1ccc(C(C[N+](=O)[O-])c2c(C)[nH]n(-c3ccccc3)c2=O)cc1` (centres undefined): the IC50 was 45.5 µM (active) at Caspase-3 and 6.91 µM (active) in experiment [1]. Moreover, in experiment [2], the AC50 (as a rule, the concentration giving half of the maximal activity seen) is 7.91 µM (active).

Turning to `O=C(COC(=O)c1ccc([N+](=O)[O-])s1)Nc1cccc(S(=O)(=O)/N=C2/CCCCCN2)c1`, the IC50 in experiment [3] was > 47.1 µM (inactive). For the same compound, in [4], the EC50 (as a rule, the concentration needed to bring the measured effect to its halfway point) is 70.4 µM (inactive).

In the case of `Oc1c2ccccc2c2c3c(cccc13)N=N2` [SP-600125], the Ki – broadly, the dissociation constant of the complex between target and ligand, obtained from inhibition or displacement – in experiment [5] was 158 nM (active); in [6], 50.1 nM (active); in experiment [7], > 7.94 µM (inactive); in experiment [8] it was > 7.94 µM (inactive); in experiment [9], 501 nM (active); in [10], 126 nM (active). In addition, the Ki in experiment [11] is 63.1 nM (active); in experiment [12], 200 nM (active); in [13] it was 200 nM (active); in experiment [14], 316 nM (active); in [15], > 7.94 µM (inactive); in experiment [16], 1.26 µM (active). The Ki in experiment [17] and in experiment [18] was 501 nM (active) each time.
